Measured values from patent US9511010B2, “Compounds useful in the treatment and/or care of the skin, hair and/or mucous membranes and their cosmetic or pharmaceutical compositions” (Lubrizol Advanced Materials, Inc., priority 2012, dated 2016).

What was measured:
[1] = test system: Fibroblasts from a sample of human skin; test: Alkaline comet assay, protection against genotoxicity induced by photo-activated benzo[a]pyrene (BaP); type: cell-based; details: 0.01 mg/mL
Procedure: Fibroblasts from a sample of human skin were isolated and incubated with 0.01 mg/mL of Ac-L-Tyr-L-Glu-L-Lys-L-Leu-L-Gln-L-Val-NH2 (Ac-SEQ ID NO:22-NH2) or carrier (control) with and without the presence of 40 μM BaP for 2 hours at 37° C. Once this contact time was over the cells were irradiated with 90 KJ/m^2 UVA/visible light (320-800 nm) for a maximum of 2 min at 4° C. to induce photo activation of BaP which damages the DNA. This damage was analyzed by the alkaline comet assay, detecting the DNA breakages. The protective effectiveness of the damage to the DNA of the different treatments was determined by analyzing the images using the software Fenestra Komet 5.5, expressing the damage to the DNA as the Olive Tail Moment (OTM; arbitrary units) and the χ^2 OTM function was determined, related to the quantity of damaged DNA, with the software TableCurve 2D.
As a negative control all the non-irradiated treatments were included (control, 40 μM BaP, 0.01 mg/mL of Ac-SEQ ID NO:22-NH2 and 0.01 mg/mL of (Ac-SEQ ID NO:22-NH2)+40 μM BaP). In table 14 the protective effectiveness results of Ac-SEQ ID NO:22-NH2 in human fibroblasts are shown.
The protection percentage conferred by the compound Ac-SEQ ID NO:22-NH2 against DNA damage induced by BaP was shown as the relationship of the value of χ^2 OTM for treatment with the compound Ac-SEQ ID NO:22-NH2 in the presence of photo-activated BaP with regard to the value of χ^2 OTM of the treatment with photo-activated BaP according to the formula resulting in a protection percentage conferred by the compound Ac-SEQ ID NO:22-NH2 against damage to DNA induced by BaP of 84.3%.

FOXO response elements = test: Stimulation of the expression of proteins regulated by FOXO: luciferase reporter under FOXO response elements; type: cell-based, human; details: 0.5 mg/mL, 24 hours; carrier (0.05% DMSO) = 100
Procedure: The activation capacity of the FOXO response elements was evaluated in a human epithelial cell line stably transfected with the luciferase gene under the control of a regulatory sequence which contains different FOXO response elements which are in the promoters of the FOXO target genes. The activation capacity of the FOXO response elements indicates the expression of proteins regulated by FOXO. 30,000 cells per well were seeded in a total volume of 100 μL of RPMI 1640 culture medium. After 24 hours the cells with RPMI 1640 culture medium were washed and were incubated with the compounds of the invention at 0.5 mg/mL for 24 hours in a total volume of 100 μL per well. The carrier in which the compounds of the invention were dissolved was used (0.05% DMSO) as a negative control.
The measurement of the activity of the promoter was carried out using the Steady-Go Luciferase Assay System kit following the manufacturer's instructions. The luminescence values (RLU/sec) caused by the reaction between luciferase and the substrate were quantified with a luminometer and normalized by the cell number (absorbance at 630 nm), and the activity of the promoter was determined, which was standardized with regard to the negative control values.
Each experiment was carried out three times in 3 independent experiments.

[2] = test system: senescence-associated β-galactosidase (SA-β-Gal) in HDFa cells; test: Reduction of cell senescence in human fibroblasts (SA-β-Gal histochemical detection); type: cell-based; details: for Proportion of positive SA-β-gal cells: 24 hours, HDF, control 27.28
Procedure: A widely used assay to evaluate cell senescence is histochemical detection of the activity, of the β-galactosidase, called SA-β-Gal. The activity of the β-galactosidase is derived from the increase in the lysosomal content of senescent cells, which enables the detection of the lysosomal β-galactosidase at pH 6.0. The β-galactosidase is considered a marker of senescence both in vitro and in vivo.
With this objective, HDFa cells from phase 4 of a person were seeded in 96-well plates at 10,000 cells/well in culture medium 106 supplemented with 2% LSGS. After 24 hours the culture medium was removed and the cells were treated with 0.025 mg/mL and 0.01 mg/mL of Ac-L-Tyr-L-Glu-L-Lys-L-Leu-L-Gln-L-Val-NH2 (Ac-SEQ ID NO:22-NH2) in culture medium 106 for another 24 hours at 37° C. and humidified air with 5% CO2.
As a positive control of cell senescence (old fibroblasts) HDFa from phase […] of a person were used treated with culture medium; as a negative control of cell senescence (juvenile fibroblasts) HDFa from phase 4 were used from a person treated with culture medium.
After the incubation period the activity of the senescence-associated β-galactosidase (SA-β-Gal) was determined with the Senescence Cells Histochemical Kit.

HDFa cells = test: Photo repair effectiveness in human fibroblasts (Neutral Red viability, treatment after irradiation); type: cell-based; details: for Cell viability: irradiated control 63.06%; for Effectiveness Photo-repair (%): irradiated
Procedure: HDFa cells were put in culture medium for 24 hours in 96-well plates to form monolayers at 37° C. and humidified air with 5% CO2. Afterwards the culture medium was changed for D-PBS and the cells were irradiated with a solar simulation lamp at ˜40 J/cm^2 for 180 min at room temperature. A control plate was kept in the dark for the same time at room temperature.
Afterwards 0.5 mg/mL, 0.1 mg/mL, 0.01 mg/mL of Ac-L-Tyr-L-Glu-L-Lys-L-Leu-L-Gln-L-Val-NH2 (Ac-SEQ ID NO:22-NH2) in culture medium or culture medium alone (control) were added to the cells and they were incubated for 24 hours in darkness at 37° C. and humidified air with 5% CO2.
The cell viability was determined with the Neutral Red dye, measuring the absorbency at 540 nm in a spectrophotometer.
The photorepair effectiveness was determined by comparing the viability obtained in cells treated with Ac-L-Tyr-L-Glu-L-Lys-L-Leu-L-Gln-L-Val-N H2 (Ac-SEQ ID NO:22-NH2) with the irradiated and non-irradiated control cell response.

## Ac-YEKLQV-NH2 [Ac-SEQ ID NO: 22-NH2, Ac-L-Tyr-L-Glu-L-Lys-L-Leu-L-Gln-L-Val-NH2]
[1]; 40 μM BaP, irradiation with UVA/visible, BaP alone 11.38
  χ^2 OTM: 3.52
[1]; 40 μM BaP, no irradiation, BaP alone 2.07
  χ^2 OTM: 2.18
[1]; no BaP, irradiation with UVA/visible, control 2.25
  χ^2 OTM: 2.09
[1]; no BaP, no irradiation, control 2.08
  χ^2 OTM: 2.26
[1]; photo-activated 40 μM BaP
  protection percentage against damage to DNA induced by BaP: 84.3%
FOXO response elements
  Stimulation Average (%) of the activation of the FOXO response factors: 186%
[2]; 0.01 mg/mL
  Proportion of positive SA-β-gal cells: 7.02
[2]; 0.025 mg/mL
  Proportion of positive SA-β-gal cells: 16.90
[2]; HDFa
  Effect on proportion of cells containing β-galactosidase (in words): reduced the proportion of cells containing β-galactosidase
HDFa cells; 0.01 mg/mL for 24 hours after irradiation ~40 J/cm^2
  Cell viability: 71.99%
HDFa cells; 0.01 mg/mL
  Effectiveness Photo-repair (%): 14.16%
HDFa cells; 0.1 mg/mL for 24 hours after irradiation ~40 J/cm^2
  Cell viability: 70.71%
HDFa cells; 0.1 mg/mL
  Effectiveness Photo-repair (%): 12.13%
HDFa cells; 0.5 mg/mL for 24 hours after irradiation ~40 J/cm^2
  Cell viability: 71.40%
HDFa cells; 0.5 mg/mL
  Effectiveness Photo-repair (%): 13.23%
